Reference: patent US20040266696A1, “Angiogenesis drugs” (priority 2001, published 2004)
Square brackets hold non-standard residues; d marks the D form. Ends that are not written are not given here.

How the values were obtained:
mouse = assay: Angiogenesis action in vivo examined by DAS assay (microcell embedded in the back of mouse); settings: for Angiogenesis Magnitude (number of newly formed spiral blood vessels): peptide 10 μg/ml in DMEM injected into microcell in back of mouse, observed five days later; for angiogenic activity / angiogenesis action (summary in words): DAS assay in mice; for angiogenesis magnitude: peptide-bound gelatin collagen I mixture solution 10 μg/ml; for angiogenesis magnitude / formation of capillary / spiral blood vessels in tissue contacting the microcell (observation): microcell in back of mouse, five days; for formation of capillary / spiral blood vessels in tissue contacting the microcell (observation): peptide 10 μg/ml in DMEM
Procedure: A solution containing the peptide at a concentration of 10 μg/ml in DMEM (Dulbecco's modified Eagle medium) used as a cell culture medium was prepared.
The magnitude indicates the number of newly formed spiral blood vessels, and M0 means that the number is 0, M1 means 1 to 10, M2 means 11 to 20, M3 means 21 to 30, M4 means 31 to 40, M5 means 41 to 50 and M6 means 51 or more. Thus, the larger the magnitude M, the higher the angiogenic activity.
The AGP conjugate (prepared in Example 10) having a concentration of 100 μg/ml was dissolved in collagen I at a ratio of 1:10 to obtain a peptide-bound gelatin collagen mixture solution having a concentration of 10 μg/ml.

[1] = test system: transformed rat lung endothelial cells (TRLECs); assay: Angiogenic action in three-dimensionally cultured vascular endothelial tissue (tube formation); format: cell-based
Procedure: Rat vascular endothelial cells were three-dimensionally cultured in the presence of AGP synthesized in Example 1. As the cells, transformed rat lung endothelial cells (TRLECs) were used. TRLECs were placed in a collagen I layer mixed with the peptide solution, which contained 10 μg/ml of AGP, and cultured in a carbon dioxide gas incubator for 14 days. Control experiments were carried out in the absence of a factor. And positive control experiments were performed in the presence of VEGF, which is known as a potent angiogenesis factor.
No tubes were detected in the control at all. […] It was observed that a plurality of microvilli were found on the inner surfaces of the tubes. […] Tight junction formation was observed where the endothelial cells were firmly bound. These observations indicate that the endothelial cells acquired polarity and formed tubes. The polarity means that a cell develops regions having different functions such as head and tail. No polarity is given to the endothelial cells when the endothelial cells are cultured in a usual way, and so no tubes are formed.
Rat vascular endothelial cells were three-dimensionally cultured in the presence of AGP-bound gelatin synthesized in Example 10. As the cells, transformed rat lung endothelial cells (TRLECs) were used. Peptide AGP-bound gelatin (conjugate) and collagen type I were mixed at a ratio of 1:10, and TRLECs were placed in a layer containing the conjugate-collagen mixture solution, having a final concentration of 10 μg (microgram/ml) and cultured in a carbon dioxide gas incubator for 14 days. Control experiments were carried out in the absence of a factor, and in the presence of VEGF known as an angiogenesis factor.
No tube formations were detected in the control at all. […] It was observed that a plurality of microvilli were formed on the inner surfaces of the tubes. […] Tight junction formation was observed where the endothelial cells were firmly bound. These observations indicate that the endothelial cells acquired polarity and formed tubes.

[2] = TRLECs in collagen I layer, 10 μg/ml of AGP, cultured 14 days, microscope

Row | Substance | Angiogenesis Magnitude (number of newly formed spiral blood vessels) (mouse) | further results
1 | SVVY (Oligopeptide having angiogenic activity) [Example 21] | M1 (M1 means 1 to 10) | –
2 | SVVFGLR (Oligopeptide having angiogenic activity) [Example 12] | M6 (M6 means 51 or more) | angiogenic activity / angiogenesis action (summary in words) (mouse; listed as SEQ ID NO: 9): especially high angiogenic activity; angiogenic activity / angiogenesis action (summary in words) (mouse; listed as SEQ ID NO:9): higher angiogenic activity than the peptide having the amino acid sequence shown in SEQ ID NO: 1
3 | VEGF | M3 (M3 means 21 to 30) | tube-like structure formation by endothelial cells [1, 2]: arranged in the tube-like structure; tube-like structure formation by endothelial cells ([1]; TRLECs in conjugate-collagen type I mixture (1:10), final concentration 10 μg/ml, 14 days): arranged in the tube-like structure; angiogenesis magnitude (mouse): M3 (M3 means 21 to 30)
4 | SVV yGLR (SVV[dY]GLR) [Example 18] | M2 (M2 means 11 to 20) | –
5 | GLR (Oligopeptide not having angiogenic activity) [compound 7] | M0 (M0 means that the number is 0) | –
6 | GRGDSVVYGLR (Oligopeptide having angiogenic activity) [Example 16] | – | angiogenic activity / angiogenesis action (summary in words) (mouse): high angiogenic activities
7 | VVYGLR (Oligopeptide having angiogenic activity) [Example 14] | M5 (M5 means 41 to 50) | –
8 | SVVYGL (Oligopeptide having angiogenic activity) [Example 13] | M5 (M5 means 41 to 50) | –
9 | AGP: heptapeptide (angiogenic peptide) having the amino acid sequence shown in SEQ ID NO: 1 (SVVYGLR; Oligopeptide having angiogenic activity) | M5 (M5 means 41 to 50) | tube-like structure formation by endothelial cells [1, 2]: arranged in the tube-like structure; lengths of the tubes formed, compared with VEGF ([1]; TRLECs in collagen I layer, 10 μg/ml, 14 days): significantly longer; angiogenic activity / angiogenesis action (summary in words) (mouse): strong (prominent) angiogenesis action; formation of capillary / spiral blood vessels in tissue contacting the microcell (observation) (mouse): a number of branched capillary blood vessels were formed; angiogenesis magnitude (mouse): M5 (M5 means 41 to 50)
10 | AGP4: AGP heptapeptide wherein the fourth amino acid tyrosine was substituted by alanine (SVVAGLR; Oligopeptide not having angiogenic activity) | M0 (M0 means that the number is 0) | angiogenic activity / angiogenesis action (summary in words) (mouse): angiogenesis action was lost; formation of capillary / spiral blood vessels in tissue contacting the microcell (observation) (mouse): not observed at all
11 | YGLR (Oligopeptide not having angiogenic activity) [compound 6] | M0 (M0 means that the number is 0) | –
12 | SVVYGLRG (Oligopeptide having angiogenic activity) [Example 15] | – | angiogenic activity / angiogenesis action (summary in words) (mouse): high angiogenic activities
13 | SVVYG (Oligopeptide having angiogenic activity) [Example 20] | M2 (M2 means 11 to 20) | –
14 | SVV (Oligopeptide not having angiogenic activity) [compound 4] | M0 (M0 means that the number is 0) | –
15 | SVVWGLR (Oligopeptide having angiogenic activity) [Example 19] | M3 (M3 means 21 to 30) | –
16 | VYGLR (Oligopeptide not having angiogenic activity) [compound 5] | M0 (M0 means that the number is 0) | –
